Key:
[1] = molecular target: Muscarinic acetylcholine receptors; M2 & M3 (Homo sapiens) (UniProt P20309+P08172); experiment: Selectivity ratio between Kb values of M2-receptor (atria) and M3-receptor (ileum); assay type: tissue-based; settings: Cavia porcellus
[2] = molecular target: Muscarinic acetylcholine receptor M3 (Cavia porcellus) (UniProt Q8VH26); experiment: Antimuscarinic activity against muscarinic acetylcholine M3-receptor in guinea pig ileum; assay type: tissue-based
Chain of Muscarinic acetylcholine receptor M3 (Cavia porcellus) (Q8VH26 1-587): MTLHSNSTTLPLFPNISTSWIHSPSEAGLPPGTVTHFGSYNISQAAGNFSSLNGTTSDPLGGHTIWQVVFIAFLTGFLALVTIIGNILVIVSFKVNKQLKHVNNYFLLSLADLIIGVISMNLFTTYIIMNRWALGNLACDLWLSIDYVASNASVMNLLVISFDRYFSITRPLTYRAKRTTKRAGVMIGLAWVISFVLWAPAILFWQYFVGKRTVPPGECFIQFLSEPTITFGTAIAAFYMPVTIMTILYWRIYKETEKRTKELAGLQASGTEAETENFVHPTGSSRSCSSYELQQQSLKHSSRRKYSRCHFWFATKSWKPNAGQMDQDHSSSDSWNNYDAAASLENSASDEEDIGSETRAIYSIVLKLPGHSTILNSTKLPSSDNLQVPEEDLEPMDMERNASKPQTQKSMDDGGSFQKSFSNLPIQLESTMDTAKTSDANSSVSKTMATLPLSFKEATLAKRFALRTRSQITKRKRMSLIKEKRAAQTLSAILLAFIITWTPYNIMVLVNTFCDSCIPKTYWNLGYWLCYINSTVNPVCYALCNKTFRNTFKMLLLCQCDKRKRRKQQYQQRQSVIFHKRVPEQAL

Row | Ratio [1] | Kb [2] [nM] | Structure (SMILES)
1 | 3.02 | 4.07 | CCC[n+]1ccn(CCC(C(N)=O)(c2ccccc2)c2ccccc2)c1C
2 | 1.44 | – | CCCc1nccn1CCC(C(N)=O)(c1ccccc1)c1ccccc1
3 | 7.15 | 1.02 | Cc1ccc(C[n+]2ccn(CCC(C(N)=O)(c3ccccc3)c3ccccc3)c2C)cc1
4 | 2.45 | – | CC(C)(C)c1nccn1CCC(C(N)=O)(c1ccccc1)c1ccccc1
5 | 5.67 | 11.8 | Cc1n(CCC(C(N)=O)(c2ccccc2)c2ccccc2)cc[n+]1Cc1ccccc1Cl
6 | 1.68 | 3.78 | Cc1n(CCC(C(N)=O)(c2ccccc2)c2ccccc2)cc[n+]1C
7 | 1.74 | 12.5 | CCCc1n(CCC(C(N)=O)(c2ccccc2)c2ccccc2)cc[n+]1C
8 | 9.32 | 0.647 | Cc1n(CCC(C(N)=O)(c2ccccc2)c2ccccc2)cc[n+]1Cc1ccc(Cl)cc1
9 | 3.3 | – | CCc1nccn1CCC(C(N)=O)(c1ccccc1)c1ccccc1
10 | 26.2 | 0.756 | Cc1n(CCCCC(C(N)=O)(c2ccccc2)c2ccccc2)cc[n+]1Cc1ccccc1
11 | 13.5 | – | NC(=O)C(CCn1ccnc1)(c1ccccc1)c1ccccc1
12 | 13.5 | 4.96 | Cc1n(CCC(C(N)=O)(c2ccccc2)c2ccccc2)cc[n+]1Cc1ccccc1
13 | 4.36 | 5.62 | Cc1n(CCC(C(N)=O)(c2ccccc2)c2ccccc2)cc[n+]1Cc1cccc(Cl)c1
14 | 4.6 | 2.52 | Cc1cccc(C[n+]2ccn(CCC(C(N)=O)(c3ccccc3)c3ccccc3)c2C)c1
15 | 2.24 | 21.1 | Cc1ccccc1C[n+]1ccn(CCC(C(N)=O)(c2ccccc2)c2ccccc2)c1C
16 | 9.94 | 0.639 | Cc1n(CCCC(C(N)=O)(c2ccccc2)c2ccccc2)cc[n+]1Cc1ccccc1
17 | 3.39 | – | Cc1nccn1CCCCC(C(N)=O)(c1ccccc1)c1ccccc1
18 | 22.1 | 0.117 | Cc1n(CCC(C(N)=O)(c2ccccc2)c2ccccc2)cc[n+]1Cc1ccc(Br)cc1
19 | 17.6 | – | Cc1nccn1CCCC(C(N)=O)(c1ccccc1)c1ccccc1
20 | 4.11 | 1.14 | CCc1n(CCC(C(N)=O)(c2ccccc2)c2ccccc2)cc[n+]1C
21 | 13 | – | Cc1nccn1CCC(C(N)=O)(c1ccccc1)c1ccccc1
22 | 5.83 | 3.12 | CCCC[n+]1ccn(CCC(C(N)=O)(c2ccccc2)c2ccccc2)c1C
23 | 1.3 | 7.11 | CC[n+]1ccn(CCC(C(N)=O)(c2ccccc2)c2ccccc2)c1C
24 | 24.8 | 1.24 | Cc1n(CCC(C(N)=O)(c2ccccc2)c2ccccc2)cc[n+]1Cc1ccc(-c2ccccc2)cc1
25 | 5.28 | 0.858 | Cc1n(CCC(C(N)=O)(c2ccccc2)c2ccccc2)cc[n+]1Cc1ccc([N+](=O)[O-])cc1
